Experimental data reported in patent publication US9517221B2, “(2R)-2-propyloctanoic acid for functional brain disease” (ONO PHARMACEUTICAL CO., LTD., priority 2006, dated 2016).
Where a name gives a salt, the structure may show the parent alone.

How the values were obtained:
[1] = test system: olfactory bulbectomized rats; test: Hyperemotional reactivity (hyperemotional score) of olfactory bulbectomized rats; type: in vivo, rat; set-up: key to Hyperemotional score (mean ± S. E.), One day administration, Before administration / Hyperemotional score (mean ± S. E.), One day administration, After administration / Hyperemotional score (mean ± S. E.), Seven days administration, Before administration / Hyperemotional score (mean ± S. E.), Seven days administration, After administration: irritability score per Gomita et al. (1983) criteria
Experimental: SPF rats (Crlj: WI) were used in the test. The animal for olfactory bulbectomy was anesthetized with pentobarbital sodium (Nembutal R Injection, Dainippon Pharmaceutical, dose: 1 mL/kg (intraperitoneal administration)), and the head was fixed using a brain stereotaxic apparatus (ASI Instruments, Inc., NARISHIGE). After incising the head skin, holes are opened at right and left olfactory bulb regions of the skull using a dental drill (manufactured by MINITOR), and the right and left olfactory bulbs were removed by sucking them using an aspirator connected to a tip-removed oral sonde, and the head skin was stitched thereafter. In this connection, in the case of the animals for sham-operation, anesthesia, brain fixation and head skin incision were carried out in the same manner as in the animals for olfactory bulbectomy, holes are opened at right and left olfactory bulb regions of the skull and the head skin was stitched without carrying out suction removal of the olfactory bulbs. The rats after olfactory bulbectomy were put into a series of five stainless steel cages, each of which was partitioned into two parts with an acrylic board for individual rearing space, and individually reared under a dark condition. The rats were subjected to the following tests of (2) and (3).
• (a) Sham-operation group (12 animals); • (b) Vehicle control group (12 animals); • (c) 3 mg/kg administration group (12 animals) of (2R)-2-propyloctanoic acid; • (d) 10 mg/kg administration group (12 animals) of (2R)-2-propyloctanoic acid; • (e) 10 mg/kg administration group (12 animals) of Milnacipran hydrochloride. [Drug Administration]
As shown below, drug solution or vehicle was administered once a day for 8 days, a total of 8 times, at a respective liquid dose of 5 mL/kg. • (a) Sham-operation group: vehicle (0.1% by volume Tween 80) aqueous solution; • (b) Vehicle control group: vehicle (0.1% by volume Tween 80) aqueous solution; • (c) 3 mg/kg administration group of (2R)-2-propyloctanoic acid: a drug solution in which (2R)-2-propyloctanoic acid was prepared to be 0.6 mg/mL with the vehicle; • (d) 10 mg/kg administration group of (2R)-2-propyloctanoic acid: a drug solution in which (2R)-2-propyloctanoic acid was prepared to be 2.0 mg/mL with the vehicle; • (e) 10 mg/kg administration group of milnacipran hydrochloride: a drug solution in which Milnacipran hydrochloride was prepared to be 2.3 mg/mL with the vehicle (Milnacipran itself is included in 2.0 mg/mL). (2) Examination of the Activity for Hyperemotional Reactivity <Evaluation Method>
Evaluation of the hyperemotional reactivity was carried out (1) before the grouping, (2) from 1 hour to 1 hour and 10 minutes after administration of the 1 day drug administration, (3) before administration of the 7 days administration and (4) from 1 hour to 1 hour and 10 minutes after the administration (a total of 4 times), by scoring the degree of irritability once a rat in accordance with the following evaluation criteria of hyperemotional reactivity (hyperemotional score: prepared based on the method of Gomita et al. (Folia Pharmacologica Japonica, 82, 267, 1983). Additionally, all of the conditions of the evaluation were shot and recorded using a video camera (SSC-DC430, SONY) and handled as reference data.

[2] = test system: olfactory bulbectomized rats; test: Anxiolytic behavior on elevated plus maze of olfactory bulbectomized rats; type: in vivo, rat; conditions: dose 10 mg/kg once a day for 8 days; 5 minutes test 1 hour after 8 days administration
Experimental: SPF rats (Crlj: WI) were used in the test. The animal for olfactory bulbectomy was anesthetized with pentobarbital sodium (Nembutal R Injection, Dainippon Pharmaceutical, dose: 1 mL/kg (intraperitoneal administration)), and the head was fixed using a brain stereotaxic apparatus (ASI Instruments, Inc., NARISHIGE). After incising the head skin, holes are opened at right and left olfactory bulb regions of the skull using a dental drill (manufactured by […]), and the right and left olfactory bulbs were removed by sucking them using an aspirator connected to a tip-removed oral sonde, and the head skin was stitched thereafter. In this connection, in the case of the animals for sham-operation, anesthesia, brain fixation and head skin incision were carried out in the same manner as in the animals for olfactory bulbectomy, holes are opened at right and left olfactory bulb regions of the skull and the head skin was stitched without carrying out suction removal of the olfactory bulbs. The rats after olfactory bulbectomy were put into a series of five stainless steel cages, each of which was partitioned into two parts with an acrylic board for individual rearing space, and individually reared under a dark condition. The rats were subjected to the following tests of (2) and (3). • (a) Sham-operation group (12 animals); • (b) Vehicle control group (12 animals); • (c) 3 mg/kg administration group (12 animals) of (2R)-2-propyloctanoic acid; • (d) 10 mg/kg administration group (12 animals) of (2R)-2-propyloctanoic acid; • (e) 10 mg/kg administration group (12 animals) of Milnacipran hydrochloride. [Drug Administration] As shown below, drug solution or vehicle was administered once a day for 8 days, a total of 8 times, at a respective liquid dose of 5 mL/kg. • (a) Sham-operation group: vehicle (0.1% by volume Tween 80) aqueous solution; • (b) Vehicle control group: vehicle (0.1% by volume Tween 80) aqueous solution; • (c) 3 mg/kg administration group of (2R)-2-propyloctanoic acid: a drug solution in which (2R)-2-propyloctanoic acid was prepared to be 0.6 mg/mL with the vehicle; • (d) 10 mg/kg administration group of (2R)-2-propyloctanoic acid: a drug solution in which (2R)-2-propyloctanoic acid was prepared to be 2.0 mg/mL with the vehicle; • (e) 10 mg/kg administration group of milnacipran hydrochloride: a drug solution in which Milnacipran hydrochloride was prepared to be 2.3 mg/mL with the vehicle (Milnacipran itself is included in 2.0 mg/mL). (2) Examination of the Activity for Hyperemotional Reactivity <Evaluation Method> Evaluation of the anxiolytic behavior on an elevated plus maze was carried out once per animal for 5 minutes from 1 hour to 1 hour and 10 minutes after 8 days of the administration, in accordance with the following method. Each animal was softly put on a platform of elevated plus maze which is described later, toward one of the open arms. Thereafter, behavior of the animal was shot using a video camera (CCD-DC430, SONY) set up the elevated plus maze, and the images were analyzed by a video image behavior analyzing device (Etho Vision, manufactured by Noldus). Additionally, the images from the video camera were recorded and handled as reference data. In this connection, when the animal fell, it was regarded as staying on the open arm, and the animal was quickly returned to the place or the open arm where it was present just before the falling. The evaluation was carried out on the respective items shown by A to H (A: frequency of approach to the open arm, B: frequency of approach to the closed arm, C: frequency of approach to the platform, D: stayed time (second) on the open arm, E: stayed time (second) on the closed arm, F: stayed time (second) on the platform, G: defecation frequency on the open arm, platform and closed arm, and H: urination frequency on the open arm, platform and closed arm), by measuring A to F using the video image behavior analyzing device, and by measuring G and H after completion of the measurement. […]

CCN(CC)C(=O)C1(c2ccccc2)CC1CN (stereo not drawn) [Milnacipran hydrochloride, reference compound]
Hyperemotional score (mean ± S. E.), Seven days administration, After administration ([1]; dose 10 mg/kg once a day, 1 hour to 1 hour 10 minutes after 7 days administration): 7.6 ± 0.8 | Hyperemotional score (mean ± S. E.), Seven days administration, Before administration ([1]; dose 10 mg/kg once a day, before administration of the 7 days administration): 10.2 ± 1.1 | Hyperemotional score (mean ± S. E.), One day administration, After administration ([1]; dose 10 mg/kg, 1 hour to 1 hour 10 minutes after 1 day administration): 14.3 ± 1.0 | Hyperemotional score (mean ± S. E.), One day administration, Before administration ([1]; dose 10 mg/kg, baseline before grouping, 12 animals): 20.0 ± 0.0 | Time (seconds) stayed on closed arm (mean ± S. E.) [2]: 196.0 ± 19.8 s | Time (seconds) stayed on open arm (mean ± S. E.) [2]: 72.7 ± 18.3 s
